Laboratory results reported in patent US20220073941A1, “HERBICIDE-RESISTANT CAMELINA SATIVA PLANTS, AND VARIANT CAMELINA ACETOHYDROXYACID SYNTHASE POLYPEPTIDES” (priority 2019, published 2022).
Where “and” joins values, the source holds several entries; their conditions need not be identical. Identical values can stand only once.

Columns and labels:
Assay in all cases: AHAS product feedback inhibition assay (leucine, isoleucine, valine)
Assay type in all cases: biochemical, Camelina sativa
Conditions in all cases: for Absorbance at 530 nm (AHAS product feedback inhibition assay, raw data), Avg: average of replicates per experiment; for Absorbance at 530 nm (AHAS product feedback inhibition assay, raw data): individual replicates, experiments 1-3; for % activity (AHAS activity as % of control): control 100 mM pyruvate, no added amino acid, per experiment (Exp. 1-3); for % activity (AHAS activity as % of control), means: means of 3 experiments
[1] = system: AHAS, enzyme extract of SRS 934
Method: (§1) Briefly, for each of the three comparators, leaf and stem (petiole) material was bulk-harvested at the 3-4 leaf stage from at least 30 plantlets, snap-frozen in liquid nitrogen, and stored at −80° C. The AHAS in vitro assay was conducted according to the method of Singh et al (1988), with modifications by Yu (2010) and Rustgi (2014). For each comparator, 4 grams of frozen material were ground to a fine powder with a mortar and pestle in liquid nitrogen and homogenized in 1 volume of cold extraction buffer containing 100 mM potassium phosphate buffer (pH7.5), 10 mM sodium pyruvate, 5 mM MgCl2, 100 μM flavin adenine dinucleotide (FAD), and 10% glycerol. Four 2-mL microcentrifuge tubes were used for each comparator. The homogenate was centrifuged at 13,000 rpm for 10 min at 4° C., supernatant collected and re-centrifuged for an additional 10 minutes under the same conditions. For each tube, 1 mL of supernatant was pipetted into a new 2-mL microcentrifuge tube, and protein was precipitated by the addition of 1 mL of saturated ammonium sulfate. The solution was mixed well by vortex and allowed to stand on ice for 20 minutes, then centrifuged at 13,000 rpm at 4° C. The protein pellet was resuspended in 300 μL of reaction buffer containing 50 mM potassium phosphate buffer (pH7.5), 100 mM sodium pyruvate, 10 mM MgCl2, 1 mM EDTA, 10 μM FAD, 100 mM NaCl, and 1 mM thiamine pyrophosphate. Tubes of each comparator were combined, mixed well, kept on ice and immediately used in the AHAS activity and feedback inhibition assays.
(§2) Total protein concentration of the crude extract was determined by the Bradford method (Bradford, 1976). All assays were conducted using 300 μg of total protein each.
(§3) The feedback inhibition assay was performed by combining equal amounts of extract and amino acids leucine, isoleucine, or valine, respectively, in concentrations of 0.1 mM, 1 mM, 10 mM and 100 mM, according to Yu et al. (2010). The reaction mixture contained 50 μL enzyme extract and 50 μL 100 mM sodium pyruvate and inhibitor amino acid. The reaction was incubated at 37° C. for 60 minutes, then stopped and acetolactate converted to acetoin with the addition of 20 μL of 6 N H2SO4 and incubated at 60° C. for 15 minutes. A separate background “blank” was included for each sample group by adding 20 μL of 6 N H2SO4 prior to the addition of the enzyme extracts. Then, 95 μL of 0.55% w/v creatine solution and 95 μL of α-naphthol solution (5.5% w/v in 5 N NaOH) were added and the mixture incubated at 60° C. for a further 15 minutes. After cooling to room temperature for 15 minutes, enzyme activity was determined colorimetrically by reading the absorbance at 530 nm. Three independent experiments were conducted. Experiment 1 and 2 each contained 2 technical replicates, while experiment 3 included 3 technical replicates.

[2] = system: AHAS, enzyme extract of 14CS0851-01-14
Method: as §1, §2, §3

[3] = system: AHAS, enzyme extract of MIDAS™
Method: as §1, §2, §3

[4] = 1 mM amino acid final concentration
[5] = 10 mM amino acid final concentration
[6] = 100 mM amino acid final concentration

CC[C@H](C)[C@H](N)C(=O)O [isoleucine]
Absorbance at 530 nm (AHAS product feedback inhibition assay, raw data), Avg [1, 4]: 0.2535 and 0.224 and 0.115 | Absorbance at 530 nm (AHAS product feedback inhibition assay, raw data) [1, 4]: 0.251 and 0.256 and 0.245 and 0.203 and 0.120 and 0.111 and 0.114 | Absorbance at 530 nm (AHAS product feedback inhibition assay, raw data), Avg [1, 5]: 0.234 and 0.187 and 0.093 | Absorbance at 530 nm (AHAS product feedback inhibition assay, raw data) [1, 5]: 0.233 and 0.235 and 0.219 and 0.154 and 0.091 and 0.089 and 0.100 | Absorbance at 530 nm (AHAS product feedback inhibition assay, raw data), Avg [1, 6]: 0.186 and 0.156 and 0.069 | Absorbance at 530 nm (AHAS product feedback inhibition assay, raw data) [1, 6]: 0.196 and 0.176 and 0.177 and 0.134 and 0.065 and 0.069 and 0.073 | Absorbance at 530 nm (AHAS product feedback inhibition assay, raw data), Avg [2, 4]: 0.296 and 0.229 and 0.105 | Absorbance at 530 nm (AHAS product feedback inhibition assay, raw data) [2, 4]: 0.305 and 0.287 and 0.238 and 0.220 and 0.106 and 0.104 | Absorbance at 530 nm (AHAS product feedback inhibition assay, raw data), Avg [2, 5]: 0.209 and 0.186 and 0.088 | Absorbance at 530 nm (AHAS product feedback inhibition assay, raw data) [2, 5]: 0.217 and 0.201 and 0.200 and 0.171 and 0.087 and 0.082 and 0.094 | Absorbance at 530 nm (AHAS product feedback inhibition assay, raw data), Avg [2, 6]: 0.182 and 0.145 and 0.061 | Absorbance at 530 nm (AHAS product feedback inhibition assay, raw data) [2, 6]: 0.188 and 0.176 and 0.70 and 0.120 and 0.061 and 0.072 and 0.052 | sensitivity of AHAS to feedback inhibition, comparison of enzyme extracts ([2]; extracts of 14CS0851-01-14, SRS 934 and MIDAS™ compared, 1 mM, 10 mM, 100 mM): no significant difference | Absorbance at 530 nm (AHAS product feedback inhibition assay, raw data), Avg [3, 4]: 0.327 and 0.238 and 0.141 | Absorbance at 530 nm (AHAS product feedback inhibition assay, raw data) [3, 4]: 0.306 and 0.348 and 0.271 and 0.204 and 0.136 and 0.138 and 0.149 | Absorbance at 530 nm (AHAS product feedback inhibition assay, raw data), Avg [3, 5]: 0.2675 and 0.192 | Absorbance at 530 nm (AHAS product feedback inhibition assay, raw data) [3, 5]: 0.275 and 0.208 and 0.176 and 0.100 and 0.107 and 0.102 | Absorbance at 530 nm (AHAS product feedback inhibition assay, raw data), Avg [3, 6]: 0.195 and 0.077 | Absorbance at 530 nm (AHAS product feedback inhibition assay, raw data) [3, 6]: 0.194 and 0.176 and 0.149 and 0.080 and 0.075 and 0.078

CC(C)[C@H](N)C(=O)O [Val]
% activity (AHAS activity as % of control) ([1]; 1 mM final concentration): 58.3% and 47.9% and 78.7% | % activity (AHAS activity as % of control), means ([1]; 1 mM final concentration): 61.7% | % activity (AHAS activity as % of control) ([1]; 10 mM final concentration): 46.5% and 47.0% and 77.8% | % activity (AHAS activity as % of control), means ([1]; 10 mM final concentration): 57.1% | % activity (AHAS activity as % of control) ([1]; 100 mM final concentration): 41.0% and 35.4% and 61.7% | % activity (AHAS activity as % of control), means ([1]; 100 mM final concentration): 46.1% | % activity (AHAS activity as % of control) ([2]; 1 mM final concentration): 51.0% and 49.1% and 88.5% | % activity (AHAS activity as % of control), means ([2]; 1 mM final concentration): 62.8% | % activity (AHAS activity as % of control) ([2]; 10 mM final concentration): 46.9% and 45.0% and 76.1% | % activity (AHAS activity as % of control), means ([2]; 10 mM final concentration): 56.0% | % activity (AHAS activity as % of control) ([2]; 100 mM final concentration): 35.5% and 34.8% and 66.2% | % activity (AHAS activity as % of control), means ([2]; 100 mM final concentration): 45.5% | % activity (AHAS activity as % of control) ([3]; 1 mM final concentration): 55.6% and 49.8% and 71.2% | % activity (AHAS activity as % of control), means ([3]; 1 mM final concentration): 58.9% | % activity (AHAS activity as % of control) ([3]; 10 mM final concentration): 48.0% and 47.5% and 67.0% | % activity (AHAS activity as % of control), means ([3]; 10 mM final concentration): 54.2% | % activity (AHAS activity as % of control) ([3]; 100 mM final concentration): 40.7% and 37.8% and 58.2% | % activity (AHAS activity as % of control), means ([3]; 100 mM final concentration): 45.6%
